The text below walks through data of patent US20260374750A1, “LIGANDS SPECIFICALLY TARGETING VESICULAR GLUTAMATE TRANSPORTERS FOR SUPER-RESOLUTION IMAGING” (SORBONNE UNIVERSITÉ, priority 2021, published 2026).

Assay [1] relates to VGLUT3 (BON VGLUT3 cells). The assay can be described thus: Confocal fluorescence labeling of BON cells expressing VGLUT3. The format is cell-based, human (BON cells). Conditions: for intensity of labeling in BON VGLUT3 cells relative to BON WT cells: FIG. 3, 20 minutes; for intensity of labeling in BON VGLUT3 cells relative to BON WT cells / fluorescence intensity in BON VGLUT3 cells relative to BON WT cells / labeling in cytoplasm of BON VGLUT3 cells: 37 °C; for fluorescence intensity in BON VGLUT3 cells relative to BON WT cells / labeling in cytoplasm of BON VGLUT3 cells / effect of LSP5 pretreatment on fluorescence intensity in BON VGLUT3 cells: FIG. 2; for fluorescence intensity in BON VGLUT3 cells relative to BON WT cells / labeling in cytoplasm of BON VGLUT3 cells: 1 h; for effect of LSP5 pretreatment on fluorescence intensity in BON VGLUT3 cells: pretreatment with LSP5-2157. As for the experimental part: A “BON” cell line describes cells derived from human pancreatic carcinoma; the article by Ramet L. et al., published in J Neurosci, 2017, 37 (15), 4181-4199, describes such cells and the use thereof for the characterization of VGLUT type transporters.
(§1) The experiments are carried out with a BON cell line stably expressing VGLUT3 or a fluorescent VGLUT2 “VGLUT2-venus”. Wild non-transfected BON cells (“wild-type”, BON WT) are used as controls. The cells are cultured in F-12 Nutrient Mixture Ham medium (21765-029, Thermo Fisher Scientific) and Dulbecco's Modified Eagle's Medium High Glucose (DMEM HG, 31966021, Thermo Fisher Scientific; volume/volume), supplemented with 10% fetal calf serum (FCS, 12483012, Thermo Fisher Scientific) and 1% (volume/volume) of a mixture of streptomycin (10 mg/mL)/penicillin (10,000 U/mL) and […] an incubator at 37 °C under 5% CO2. For the transfected clones, the medium is enriched with 0.8 mg/mL Geneticin G418 sulfate (G418, 10131027, Thermo Fisher Scientific).
The cells are cultured in 25 cm^2 culture flasks. When the cells are at confluence, they are rinsed with sterile PBS 1× after aspiration of the medium, then incubated for five minutes at 37 °C with a solution of trypsin-EDTA (0.05% trypsin EDTA, 25300054, Thermo Fisher Scientific. The cell layer is then detached and the cells dissociated from each other. After addition of medium, the cell suspension is centrifuged for 5 minutes at 300 g, then the pellet is diluted 1:3 in order to be recultivated.
(§2) Two days before each experiment, after trypsinization of the cells from a culture flask, the cell suspension is seeded at 150,000 cells/well, in twelve-well plates on glass coverslips 19 mm in diameter. For observation, these coverslips are placed in a chamber allowing a hermetic fixation of the coverslip in the observation medium, Fluorobrite™ DMEM (A1896701, Thermo Fisher Scientific), a transparent medium.
(§3) Before each observation, the cells are incubated at 37 °C in the presence of fluorescent ligands, at previously determined concentrations. The effect of a pretreatment of BON cells with a specific inhibitor of VGLUTs, the substance LSP5-2157, is also performed to study the inhibitory effect of this substance on the labeling of BON cells with the fluorescent ligands of the invention.
(§4) The cells are observed in real time under an inverted confocal microscope, with a 63× objective in a room thermostated at 37 °C (Leica TCS SP5; cellular imaging platform of the Paris-Seine Institute of Biology). The studied fluorescent molecules emit in the blue, the cells are excited at 405 nm.
(§5) FIG. 2 illustrates the observation and quantification of the BON cells under a confocal microscope, and the inhibition of the fluorescent signal by a pretreatment of the cells with the specific VGLUT inhibitor, LSP5-2157. […] The images are presented in negative. D,H,L and P: Quantification of the treatment effect.
Different acquisitions of cells are carried out using a confocal microscope. […] Statistical analysis: Kruskal-Wallis test followed by Dunn's post-hoc test, NS: non-significant, *p<0.01; ***p<0.0001.
FIG. 3 illustrates the observation and quantification of BON cells using a confocal microscope. Wild-type cells (BON WT) or VGLUT3-expressing cells (BON VGLUT3) are incubated with different fluorescent ligands referenced: L8, YL151, D04, C07, C05, B09, G02, F11. After treatment with fluorescent ligands for 20 minutes at 37 °C, a fluorescent labeling is visible in BON cells. The effect of the treatment is analyzed by quantifying the fluorescence intensity in each cell type. […] Statistical analysis: Mann Whitney test, NS: non-significant, **p=0.0042; ***p<0.0001.

The next assay deals with striatum slices. The assay can be described thus: Fluorescent labeling of striatum slices. The format is cell-based, mouse. Conditions: 25 μM, 1 h, 37 °C. As for the experimental part: The compatibility of the fluorescent compounds of the invention was determined in brain slices from newborns mice, a study model with greater integrity than cell culture. Mice aged 4 to 7 days are decapitated. The brains are removed and then placed in Neurobasal™-A Medium (10888022, ThermoFisher Scientific) enriched with 2% B-27™ Plus (A3582801, ThermoFisher Scientific) and 1% (volume/volume) of a mixture of streptomycin (10 mg/mL)/penicillin (10,000 U/mL). The brains are cut into 500 μm thick slices (McIlwain Tissue Chopper, model TC752) then dissociated from each other. The slices corresponding to the striatum are selected and incubated for one hour in the medium in the presence of 25 μM of fluorescent ligand, or without fluorescent molecule for the controls. Incubations in the presence or absence of the reference VGLUT inhibitor were carried out.
The brain slices were incubated in the presence of each of the compounds according to the invention D04, C07, C05, B09, L8, YL151, G02, F11 (See reference correspondences in Table 1). FIG. 4 illustrates the quantification of fluorescence of striatum slices after incubation in the presence of fluorescent compounds of the invention. […] Acquisitions were carried out using a confocal microscope (×5 objective) and the average fluorescence intensity for each slice was quantified. […]

A further assay concerns BON WT cells. Nature of the assay: Confocal fluorescence labeling of wild-type BON cells. It is filed as cell-based, human. Conditions: FIG. 2. As for the experimental part: as §1, §2, §3, §4, §5

Molecules are shown by their SMILES.

Turning to `Nc1ccc(-c2ccc(-c3cn(-c4ccc5oc(=O)c(C(=O)O)cc5c4)nn3)cc2)cc1` [LSP17-1115, 6-(4-(4′-amino-[1,1′-biphenyl]-4-yl)-1H-1,2,3-triazol-1-yl)-2-oxo-2H-chromene-3-carboxylic Acid], the “intensity of labeling in BON VGLUT3 cells relative to BON WT cells” value in assay [1] is “increases significantly”.

`Nc1ccc(-c2ccc(C#Cc3cc4cc(C(=O)O)c(=O)oc4cc3O)cc2)cc1` [LSP17-1173, 6-((4′-amino-[1,1′-biphenyl]-4-yl)ethynyl)-7-hydroxy-2-oxo-2H-chromene-3-carboxylic Acid]: in assay [1], the “fluorescence intensity in BON VGLUT3 cells relative to BON WT cells” value is “significantly increases”, the “labeling in cytoplasm of BON VGLUT3 cells” value is listed as “a punctiform labeling appears”, the “effect of LSP5 pretreatment on fluorescence intensity in BON VGLUT3 cells” value is “decreases the fluorescence intensity” and the “intensity of labeling in BON VGLUT3 cells relative to BON WT cells” value was “increases significantly”. Further, the “difference between ester (F11) and acid (G02) labeling of slices” value in the assay with striatum slices is “no significant difference between the compounds G02 and F11”. Further, in the assay on BON WT cells, the “labeling in cytoplasm of BON WT cells” value is “a weak and homogeneous labeling is detected”.

With `O=C(O)c1cc(C(=O)O)c2cc(-c3ccc(-c4ccccc4)cc3)ccc2n1` [LSP13-1152-YL152 (L8), 6-(Biphenyl-4-yl) quinoline-2,4-dicarboxylic Acid], in assay [1], the “fluorescence intensity in BON VGLUT3 cells relative to BON WT cells” value was “significantly increases”, the “labeling in cytoplasm of BON VGLUT3 cells” value is reported as “a punctiform labeling appears”, the “effect of LSP5 pretreatment on fluorescence intensity in BON VGLUT3 cells” value is listed as “decreases the fluorescence intensity” and the “intensity of labeling in BON VGLUT3 cells relative to BON WT cells” value was “increases significantly”. In the assay with BON WT cells, the “labeling in cytoplasm of BON WT cells” value is “a weak and homogeneous labeling is detected”.

As to `CCOC(=O)c1cc2cc(C#Cc3ccc(-c4ccc(N)cc4)cc3)c(O)cc2oc1=O` [F11, Ethyl-6-((4′-amino-[1,1′-biphenyl]-4-yl)ethynyl)-7-hydroxy-2-oxo-2H-chromene-3-carboxylate], the “intensity of labeling in BON VGLUT3 cells relative to BON WT cells” value in assay [1] is listed as “increases significantly”. Further, the “difference between ester (F11) and acid (G02) labeling of slices” value with striatum slices is “no significant difference between the compounds G02 and F11”.

With `COc1cc2oc(=O)c(C(=O)O)cc2cc1-n1cc(-c2ccc(-c3ccc(N)cc3)cc2)nn1` [LSP17-1124, 6-(4-(4′-amino-[1,1′-biphenyl]-4-yl)-1H-1,2,3-triazol-1-yl)-7-methoxy-2-oxo-2H-chromene-3-carboxylic Acid], the “intensity of labeling in BON VGLUT3 cells relative to BON WT cells” value in assay [1] was “increases significantly”.
